The values that follow come from ChEMBL document CHEMBL1697731, “Cheminformatics analysis of assertions mined from literature that describe drug-induced liver injury in different species” (Chem Res Toxicol, 2010).

In data set [1] the test system is Hepatotoxicity. Description: Literature-mined compound from Fourches et al multi-species drug-induced liver injury (DILI) dataset, effect in humans. Conditions: human.
Data set [2] concerns Hepatotoxicity. Description: Literature-mined compound from Fourches et al multi-species drug-induced liver injury (DILI) dataset, effect in rodents. Conditions: rodentia.
For data set [3], the system named is Hepatotoxicity. Description: Literature-mined compound from Fourches et al multi-species drug-induced liver injury (DILI) dataset, effect in non-rodents.

With `COc1cc(C(=O)NS(=O)(=O)c2ccccc2C)ccc1Cc1cn(C)c2ccc(NC(=O)OC3CCCC3)cc12` [ZAFIRLUKAST], the Hepatotoxicity entry was “drug-induced liver injury reported” in the data set on Hepatotoxicity [1], “no drug-induced liver injury reported” in the data set on Hepatotoxicity [2] and “no drug-induced liver injury reported” with Hepatotoxicity [3].
As for `CC1(C)O[C@@H]2[C@@H](CO[C@@]3(COS(N)(=O)=O)OC(C)(C)O[C@@H]23)O1` [TOPIRAMATE], the values for the Hepatotoxicity entry in the data set on Hepatotoxicity [1], with Hepatotoxicity [2] and in the data set on Hepatotoxicity [3] were “drug-induced liver injury reported”, “no drug-induced liver injury reported” and “no drug-induced liver injury reported”, respectively.
Regarding SPIRAMYCIN, the Hepatotoxicity result is reported as “drug-induced liver injury reported” in the data set with Hepatotoxicity [1], “no drug-induced liver injury reported” with Hepatotoxicity [2] and “no drug-induced liver injury reported” with Hepatotoxicity [3].
Take `CN(Cc1cnc2nc(N)nc(N)c2n1)c1ccc(C(=O)N[C@@H](CCC(=O)O)C(=O)O)cc1` [METHOTREXATE]: the Hepatotoxicity entry in the data set on Hepatotoxicity [1], in the data set with Hepatotoxicity [2] and with Hepatotoxicity [3] was “drug-induced liver injury reported” in each case.
As for `NC[C@H](O)c1ccc(O)c(O)c1` [NOREPINEPHRINE], the Hepatotoxicity result in the data set with Hepatotoxicity [1], in the data set with Hepatotoxicity [2] and in the data set with Hepatotoxicity [3] was “drug-induced liver injury reported” throughout.
As for `CCCCC(C)(O)C/C=C/[C@H]1[C@H](O)CC(=O)[C@@H]1CCCCCCC(=O)OC` (some centres undefined) [MISOPROSTOL], the Hepatotoxicity entry in the data set with Hepatotoxicity [1] was “no drug-induced liver injury reported”; in the data set on Hepatotoxicity [2], “drug-induced liver injury reported”; in the data set with Hepatotoxicity [3] it was “drug-induced liver injury reported”.
For the compound `CCCc1cc(=O)[nH]c(=S)[nH]1` [PROPYLTHIOURACIL], the figures for the Hepatotoxicity result in the data set on Hepatotoxicity [1] (Liver), with Hepatotoxicity [2] (Liver) and in the data set with Hepatotoxicity [3] (Liver) were “drug-induced liver injury reported”, “drug-induced liver injury reported” and “no drug-induced liver injury reported”, respectively.
With `CCc1oc2ccccc2c1C(=O)c1cc(I)c(O)c(I)c1` [BENZIODARONE], the Hepatotoxicity entry in the data set with Hepatotoxicity [1] is recorded as “no drug-induced liver injury reported”; in the data set on Hepatotoxicity [2] it was “drug-induced liver injury reported”; in the data set on Hepatotoxicity [3], “no drug-induced liver injury reported”.
Regarding `CCOC(=O)C(C)(C)Oc1ccc(Cl)cc1` [CLOFIBRATE], the Hepatotoxicity result in the data set with Hepatotoxicity [1], in the data set with Hepatotoxicity [2] and in the data set on Hepatotoxicity [3] was “drug-induced liver injury reported” in each case.
As for `CN1CC[C@]23c4c5ccc(O)c4O[C@H]2C(=O)CC[C@@]3(O)[C@H]1C5` [OXYMORPHONE], the Hepatotoxicity result in the data set with Hepatotoxicity [1] is recorded as “drug-induced liver injury reported”; in the data set with Hepatotoxicity [2], “no drug-induced liver injury reported”; in the data set on Hepatotoxicity [3], “no drug-induced liver injury reported”.
As for `CN(C)/N=N/c1[nH]cnc1C(N)=O` [DACARBAZINE], the Hepatotoxicity entry in the data set with Hepatotoxicity [1] is “drug-induced liver injury reported”; in the data set with Hepatotoxicity [2] it was “no drug-induced liver injury reported”; with Hepatotoxicity [3] it was “no drug-induced liver injury reported”.
On to `O=C([O-])CCCc1ccccc1.[Na+]` [SODIUM PHENYLBUTYRATE], for which the Hepatotoxicity entry with Hepatotoxicity [1] is “drug-induced liver injury reported”; with Hepatotoxicity [2] it was “no drug-induced liver injury reported”; with Hepatotoxicity [3] it was “no drug-induced liver injury reported”.
As for `O=c1[nH]c2ccccc2n1C1CCN(CCCC(c2ccc(F)cc2)c2ccc(F)cc2)CC1` [PIMOZIDE], the values for the Hepatotoxicity result in the data set on Hepatotoxicity [1], in the data set with Hepatotoxicity [2] and with Hepatotoxicity [3] were “drug-induced liver injury reported”, “no drug-induced liver injury reported” and “no drug-induced liver injury reported”, respectively.
Take `CCOc1ccc(NC(C)=O)cc1` [PHENACETIN]: the Hepatotoxicity result in the data set with Hepatotoxicity [1] was “drug-induced liver injury reported”; in the data set on Hepatotoxicity [2] it was “drug-induced liver injury reported”; in the data set with Hepatotoxicity [3], “no drug-induced liver injury reported”.
`CCCCN1C[C@H](O)[C@@H](O)[C@H](O)[C@H]1CO`: the Hepatotoxicity entry is “no drug-induced liver injury reported” in the data set on Hepatotoxicity [1], “drug-induced liver injury reported” in the data set with Hepatotoxicity [2] and “no drug-induced liver injury reported” with Hepatotoxicity [3].
`COc1cc2ncnc(Nc3ccc(F)c(Cl)c3)c2cc1OCCCN1CCOCC1` [GEFITINIB]: the results for the Hepatotoxicity entry in the data set with Hepatotoxicity [1], with Hepatotoxicity [2] and in the data set on Hepatotoxicity [3] were “drug-induced liver injury reported”, “drug-induced liver injury reported” and “no drug-induced liver injury reported”, respectively.
In the case of `NNCCc1ccccc1` [PHENELZINE], the Hepatotoxicity entry is reported as “drug-induced liver injury reported” in the data set with Hepatotoxicity [1] (Liver), “drug-induced liver injury reported” in the data set on Hepatotoxicity [2] (Liver) and “no drug-induced liver injury reported” with Hepatotoxicity [3] (Liver).
`CC[C@@]1(O)C(=O)OCc2c1cc1n(c2=O)Cc2cc3c([N+](=O)[O-])cccc3nc2-1` [RUBITECAN]: the Hepatotoxicity entry with Hepatotoxicity [1] is “drug-induced liver injury reported”; in the data set on Hepatotoxicity [2], “no drug-induced liver injury reported”; with Hepatotoxicity [3], “no drug-induced liver injury reported”.
As for `CCC(=O)O[C@H]1CC[C@H]2[C@@H]3CCC4=CC(=O)CC[C@]4(C)[C@H]3CC[C@]12C` [TESTOSTERONE PROPIONATE], the Hepatotoxicity entry in the data set with Hepatotoxicity [1] was “no drug-induced liver injury reported”; in the data set on Hepatotoxicity [2], “drug-induced liver injury reported”; in the data set with Hepatotoxicity [3], “no drug-induced liver injury reported”.
`CC[C@@]1([C@H]2O[C@H]([C@H]3O[C@@](O)(CO)[C@H](C)C[C@@H]3C)C[C@H]2C)CC[C@H]([C@@]2(C)CC[C@]3(C[C@H](O)[C@@H](C)[C@@H]([C@H](C)[C@H](OC)[C@@H](C)C(=O)[O-])O3)O2)O1.[Na+]` [MONENSIN SODIUM]: the Hepatotoxicity result was “no drug-induced liver injury reported” in the data set on Hepatotoxicity [1], “drug-induced liver injury reported” in the data set on Hepatotoxicity [2] and “no drug-induced liver injury reported” in the data set with Hepatotoxicity [3].
Turning to `O=C(O)C[C@H](O)C[C@H](O)/C=C/c1c(C2CC2)nc2ccccc2c1-c1ccc(F)cc1` [PITAVASTATIN], the Hepatotoxicity entry with Hepatotoxicity [1] is “drug-induced liver injury reported”; in the data set on Hepatotoxicity [2], “drug-induced liver injury reported”; with Hepatotoxicity [3], “no drug-induced liver injury reported”.
As to `CC(=O)N(O)CCCCCNC(=O)CCC(=O)N(O)CCCCCNC(=O)CCC(=O)N(O)CCCCCN` [DEFEROXAMINE], the Hepatotoxicity result in the data set with Hepatotoxicity [1], with Hepatotoxicity [2] and in the data set on Hepatotoxicity [3] was “drug-induced liver injury reported” in each case.
Turning to `CC/C(=C(/CC)c1ccc(O)cc1)c1ccc(O)cc1` [DIETHYLSTILBESTROL], the Hepatotoxicity entry in the data set on Hepatotoxicity [1], with Hepatotoxicity [2] and in the data set with Hepatotoxicity [3] was “drug-induced liver injury reported” throughout.
Take `CC(=O)Nc1nnc(S(N)(=O)=O)s1` [ACETAZOLAMIDE]: the Hepatotoxicity entry with Hepatotoxicity [1], in the data set with Hepatotoxicity [2] and in the data set with Hepatotoxicity [3] was “drug-induced liver injury reported” each time.
For the compound `CN1C[C@H](C(=O)N[C@]2(C)O[C@@]3(O)[C@@H]4CCCN4C(=O)[C@H](Cc4ccccc4)N3C2=O)C=C2c3cccc4[nH]cc(c34)C[C@H]21` [ERGOTAMINE], the Hepatotoxicity entry with Hepatotoxicity [1] is reported as “drug-induced liver injury reported”; in the data set on Hepatotoxicity [2], “no drug-induced liver injury reported”; in the data set with Hepatotoxicity [3], “drug-induced liver injury reported”.
For the compound `CCC(c1ccccc1)c1c(O)c2ccccc2oc1=O` (centres undefined) [PHENPROCOUMON], the Hepatotoxicity entry with Hepatotoxicity [1] is recorded as “drug-induced liver injury reported”; in the data set with Hepatotoxicity [2] it was “no drug-induced liver injury reported”; in the data set with Hepatotoxicity [3], “no drug-induced liver injury reported”.
Consider `CNC(=C[N+](=O)[O-])NCCSCc1csc(CN(C)C)n1` [NIZATIDINE], for which the Hepatotoxicity result in the data set on Hepatotoxicity [1] was “drug-induced liver injury reported”; with Hepatotoxicity [2], “drug-induced liver injury reported”; in the data set on Hepatotoxicity [3], “no drug-induced liver injury reported”.
As for GENTAMICIN, the values for the Hepatotoxicity entry with Hepatotoxicity [1], in the data set on Hepatotoxicity [2] and with Hepatotoxicity [3] were “no drug-induced liver injury reported”, “drug-induced liver injury reported” and “no drug-induced liver injury reported”, respectively.
In the case of `CCCN(CCC)S(=O)(=O)c1ccc(C(=O)O)cc1` [PROBENECID], the Hepatotoxicity entry is recorded as “drug-induced liver injury reported” in the data set on Hepatotoxicity [1], “drug-induced liver injury reported” in the data set on Hepatotoxicity [2] and “no drug-induced liver injury reported” in the data set on Hepatotoxicity [3].
Turning to `CCCCC[C@H](O)/C=C/[C@H]1[C@H](O)CC(=O)[C@@H]1C/C=C\CCCC(=O)O` [DINOPROSTONE], the Hepatotoxicity entry with Hepatotoxicity [1] is on record as “drug-induced liver injury reported”; in the data set with Hepatotoxicity [2] it was “drug-induced liver injury reported”; in the data set on Hepatotoxicity [3], “no drug-induced liver injury reported”.
Regarding POLYVINYL ALCOHOL, the Hepatotoxicity entry in the data set on Hepatotoxicity [1] is given as “no drug-induced liver injury reported”; with Hepatotoxicity [2] it was “no drug-induced liver injury reported”; in the data set on Hepatotoxicity [3], “drug-induced liver injury reported”.
For the compound `CC1(C)C(C=C(Cl)Cl)C1C(=O)OCc1cccc(Oc2ccccc2)c1` (centres undefined) [PERMETHRIN], the Hepatotoxicity entry with Hepatotoxicity [1] is “no drug-induced liver injury reported”; in the data set on Hepatotoxicity [2], “drug-induced liver injury reported”; with Hepatotoxicity [3], “no drug-induced liver injury reported”.
Turning to `CC(=O)O[C@]1(C(C)=O)CC[C@H]2[C@@H]3C=C(Cl)C4=CC(=O)CC[C@]4(C)[C@H]3CC[C@@]21C` [CHLORMADINONE ACETATE], the Hepatotoxicity result in the data set on Hepatotoxicity [1], in the data set with Hepatotoxicity [2] and in the data set on Hepatotoxicity [3] was “drug-induced liver injury reported” throughout.
